According to paper PMC5835321 (Cancer research, 2017):

Molecular target: T1, PPARG (PPAR-gamma) (Homo sapiens, UniProt P37231)
T1 sequence (P37231 231-505 limits assumed): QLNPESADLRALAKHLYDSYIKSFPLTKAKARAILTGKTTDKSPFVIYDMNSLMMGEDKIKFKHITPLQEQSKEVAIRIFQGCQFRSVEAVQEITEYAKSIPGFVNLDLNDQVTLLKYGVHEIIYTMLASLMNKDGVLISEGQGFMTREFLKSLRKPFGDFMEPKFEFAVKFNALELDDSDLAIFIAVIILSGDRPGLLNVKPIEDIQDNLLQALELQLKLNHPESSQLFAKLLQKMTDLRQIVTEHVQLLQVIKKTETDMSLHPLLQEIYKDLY

CN(CCOc1ccc(C[C@H](Nc2ccccc2C(=O)c2ccccc2)C(=O)O)cc1)c1ccccn1 [GW1929]
TR-FRET coactivator recruitment and corepressor release; full agonist: Full agonists, such as rosiglitazone, tesaglitazar, GW1929, and pioglitazone, enhanced interaction between PPARG and MED1 coactivator peptide
